Source: patent publication US11331284B2 (UNM Rainforest Innovations, priority 2017, dated 2022)

Tests used:
[1] = test system: TFEB nuclear translocation; assay: ambroxol induction of TFEB nuclear translocation; format: cell-based
[2] = test system: bone marrow derived macrophages from wild type (autophagy, LC3 puncta); assay: ambroxol dose response assay, LC3 puncta quantified by Cellomics, wild type cells; format: cell-based
[3] = in humans; reference 1; cited from earlier work
[4] = test system: bone marrow derived macrophages from ATG5 knockouts (autophagy, LC3 puncta); assay: ambroxol dose response assay, LC3 puncta quantified by Cellomics, ATG5 knockout cells; format: cell-based
Excerpt: The inventors next studied the same assay, described above, but in ATG5 knockout cells.

With `Nc1c(Br)cc(Br)cc1CN[C@H]1CC[C@H](O)CC1` [ambroxol, trans-4-[(2-amino-3,5-dibromobenzyl)amino]cyclohexanol] the “concentration at which significant increases were observed” value ([1]; FIGS. 5 and 6) was 25 µM, the EC50 ([1]; read-out: concentration giving 50% of maximal autophagy induced by ambroxol (sigmoidal fit), both data sets, FIGS. 5 and 6) was about 50 µM and the “concentration as low as which had a positive effect on autophagy” value ([2]; LC3 puncta, pp242 induction = 100%, t test v. control p=0.025, FIG. 3) was 6.25 µM. The “dose response of autophagy induction” value ([2]; ambroxol 0 to 200 uM, FIG. 3) was “higher ambroxol concentrations result in higher induction of autophagy”, the plasma half-life [3] was 3.72 h and the “dose response of autophagy induction” value ([4]; FIG. 4) was “clear dose response”. For the same compound, the “concentration as low as which gave appreciable increases in autophagy” value ([4]; LC3 puncta, t test v. control p=0.0008, FIG. 4) was 6.25 µM.
